The text below walks through data of PMC12558477, “Flavin affinity for the reductase HpaC differentially sensitizes Neisseria gonorrhoeae during Type IV pilus-dependent killing” (PLOS Pathogens, 2025).

This test addresses T1, HpaC (Gc HpaC, FA1090 HpaC) (Neisseria gonorrhoeae, UniProt Q5FAG3).
T1 construct: gene NGO_0059; His6-tagged full-length HpaC from pET28a, expressed in E. coli BL21(DE3); 166 residues; co-purifies with FAD; oligomer not measured (modelled on TftC homodimer)
Description: FAD released from purified protein by heat denaturation, coupled-enzyme fluorescent probe kit. The conditions noted are these: 0.5 µM protein, with and without 95 °C for 5 min; room temperature; co-purified FAD. It is filed as binding.

T1 sequence (Q5FAG3 entry or part of it): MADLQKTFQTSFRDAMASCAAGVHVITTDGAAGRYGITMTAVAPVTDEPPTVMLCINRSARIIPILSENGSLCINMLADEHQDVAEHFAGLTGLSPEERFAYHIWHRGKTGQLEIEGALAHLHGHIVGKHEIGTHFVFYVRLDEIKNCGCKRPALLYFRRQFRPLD

Consider `Cc1cc2nc3c(=O)[nH]c(=O)nc-3n(C[C@H](O)[C@H](O)[C@H](O)COP(=O)(O)OP(=O)(O)OC[C@H]3O[C@@H](n4cnc5c(N)ncnc54)[C@H](O)[C@@H]3O)c2cc1C` [FAD], for which the “FAD released from purified protein by heat denaturation, coupled-enzyme fluoresc” value is “We purified Gc HpaC and noticed an FAD signal in the absence of heat”.
